In ChEMBL document CHEMBL1201862, “PubChem BioAssay data set” (2004):
Values belong to the molecule of their own block, whether it stands above or below them. Calls of active or inactive are those of the source.

Assays:
Format in all cases: functional
[1] = Fluorescence-based cell-based high throughput dose response assay for inhibitors of the interaction of nucleotide-binding oligomerization domain containing 2 (NOD2) and the receptor-interacting serine-threonine kinase 2 (RIPK2).; conditions: Homo sapiens
[2] = molecular target: T1, Oxysterols receptor LXR-beta (Homo sapiens, UniProt P55055); test: LXR agonists, Gal4 luciferase reporter, dose response, counter-screen for ssDAF-12 agonist project, cell-based, luminescence, HEK293, S. stercoralis campaign (AID 720737); conditions: read-out: IC50 (the source's name)
T1 sequence (P55055 whole entry): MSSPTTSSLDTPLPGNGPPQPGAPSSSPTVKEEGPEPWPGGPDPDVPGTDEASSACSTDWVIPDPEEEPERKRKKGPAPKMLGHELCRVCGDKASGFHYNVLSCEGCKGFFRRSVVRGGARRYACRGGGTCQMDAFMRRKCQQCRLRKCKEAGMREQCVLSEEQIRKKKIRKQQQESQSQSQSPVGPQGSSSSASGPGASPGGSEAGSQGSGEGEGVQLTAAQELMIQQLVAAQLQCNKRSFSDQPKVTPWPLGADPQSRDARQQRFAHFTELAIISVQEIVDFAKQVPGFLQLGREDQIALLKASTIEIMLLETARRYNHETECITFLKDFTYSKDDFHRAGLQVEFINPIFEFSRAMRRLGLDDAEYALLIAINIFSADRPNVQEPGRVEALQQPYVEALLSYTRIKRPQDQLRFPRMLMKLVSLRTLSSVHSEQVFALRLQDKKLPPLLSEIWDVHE

[3] = molecular target: T2, Sentrin-specific protease 6 (Homo sapiens, UniProt Q9GZR1); test: SAR Analysis of small molecule inhibitors of Sentrin-specific protease 6 (SENP6) using a Luminescent assay. [Related pubchem assays (depositor defined):AID2582, AID2599]
T2 sequence (Q9GZR1 whole entry): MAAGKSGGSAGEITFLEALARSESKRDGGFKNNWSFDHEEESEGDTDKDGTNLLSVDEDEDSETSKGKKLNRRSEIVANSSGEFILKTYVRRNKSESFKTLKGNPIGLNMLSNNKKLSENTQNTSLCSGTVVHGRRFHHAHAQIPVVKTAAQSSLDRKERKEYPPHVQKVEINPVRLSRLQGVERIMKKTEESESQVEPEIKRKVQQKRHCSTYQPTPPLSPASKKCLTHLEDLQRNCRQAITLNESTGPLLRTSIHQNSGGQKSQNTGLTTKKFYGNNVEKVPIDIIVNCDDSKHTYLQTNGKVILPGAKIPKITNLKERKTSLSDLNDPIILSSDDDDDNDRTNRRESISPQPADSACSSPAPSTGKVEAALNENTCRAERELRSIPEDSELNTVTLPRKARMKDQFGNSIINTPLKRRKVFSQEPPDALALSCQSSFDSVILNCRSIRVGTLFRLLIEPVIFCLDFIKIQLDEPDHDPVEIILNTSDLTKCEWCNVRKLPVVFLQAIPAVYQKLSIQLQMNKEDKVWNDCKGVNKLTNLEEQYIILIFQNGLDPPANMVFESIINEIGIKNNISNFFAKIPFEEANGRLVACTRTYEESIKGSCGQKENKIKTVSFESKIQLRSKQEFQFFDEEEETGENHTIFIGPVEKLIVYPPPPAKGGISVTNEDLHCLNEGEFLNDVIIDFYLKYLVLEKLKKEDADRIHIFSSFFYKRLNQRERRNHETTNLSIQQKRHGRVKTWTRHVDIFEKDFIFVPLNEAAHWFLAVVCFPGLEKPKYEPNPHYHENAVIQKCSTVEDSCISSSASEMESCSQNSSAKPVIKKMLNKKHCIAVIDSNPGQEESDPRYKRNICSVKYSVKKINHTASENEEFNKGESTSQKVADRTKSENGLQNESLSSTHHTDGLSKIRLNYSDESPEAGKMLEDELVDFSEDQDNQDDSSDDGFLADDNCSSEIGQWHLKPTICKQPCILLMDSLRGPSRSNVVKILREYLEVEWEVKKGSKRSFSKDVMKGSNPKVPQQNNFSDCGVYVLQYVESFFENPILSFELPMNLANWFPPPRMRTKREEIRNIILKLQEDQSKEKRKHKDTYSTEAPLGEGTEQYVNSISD

[4] = molecular target: Serine/threonine-protein kinase BRSK1 (Homo sapiens, UniProt Q8TDC3);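 also: measured within a kinome-wide kinase panel, with the target listed as KIAA1811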
[5] = molecular target: Serine/threonine-protein kinase PLK3 (Homo sapiens, UniProt Q9H4B4)
[6] = molecular target: RAC-gamma serine/threonine-protein kinase (Homo sapiens, UniProt Q9Y243)
[7] = molecular target: Tyrosine-protein kinase receptor UFO (Homo sapiens, UniProt P30530)
[8] = molecular target: Casein kinase I isoform gamma-1 (Homo sapiens, UniProt Q9HCP0);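 also: measured as the CSNK1G1 member of a kinome profiling panel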
[9] = molecular target: Serine/threonine-protein kinase PLK1 (Homo sapiens, UniProt P53350);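 also: PLK1 measured as one member of a kinome-wide profiling panel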
[10] = molecular target: Casein kinase II subunit alpha (Homo sapiens, UniProt P68400)
Insulin receptor = Insulin receptor (Homo sapiens, UniProt P06213);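 also: insulin receptor kinase tested as one member of a kinome-wide kinase panel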
[11] = molecular target: Tyrosine-protein kinase Lyn (Homo sapiens, UniProt P07948);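 also: lyn as one member of a kinase panel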
[12] = molecular target: Ribosomal protein S6 kinase beta-1 (Homo sapiens, UniProt P23443);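 also: measured as one member of a kinome-wide profiling panel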
[13] = molecular target: Alkaline phosphatase, placental type (Homo sapiens, UniProt P05187); test: PLAP enzyme inhibitors, confirmation, biochemical, luminescence (AID 1512)
Chain of Alkaline phosphatase, placental type (P05187 whole entry): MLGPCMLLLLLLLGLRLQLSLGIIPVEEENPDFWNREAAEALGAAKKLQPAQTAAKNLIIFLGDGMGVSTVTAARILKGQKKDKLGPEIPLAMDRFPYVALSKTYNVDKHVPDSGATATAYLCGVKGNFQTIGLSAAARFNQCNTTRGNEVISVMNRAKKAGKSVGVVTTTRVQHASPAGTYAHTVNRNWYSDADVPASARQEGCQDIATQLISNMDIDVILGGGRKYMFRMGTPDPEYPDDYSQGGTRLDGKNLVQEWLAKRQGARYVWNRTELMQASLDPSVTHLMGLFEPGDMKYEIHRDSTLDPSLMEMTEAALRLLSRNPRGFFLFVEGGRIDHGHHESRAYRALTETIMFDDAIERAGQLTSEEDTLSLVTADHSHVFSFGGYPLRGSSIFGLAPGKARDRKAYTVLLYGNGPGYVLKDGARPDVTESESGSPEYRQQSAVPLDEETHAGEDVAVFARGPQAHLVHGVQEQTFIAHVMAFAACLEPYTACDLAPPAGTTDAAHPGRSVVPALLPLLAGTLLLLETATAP

Chain of Casein kinase II subunit alpha (P68400 whole entry): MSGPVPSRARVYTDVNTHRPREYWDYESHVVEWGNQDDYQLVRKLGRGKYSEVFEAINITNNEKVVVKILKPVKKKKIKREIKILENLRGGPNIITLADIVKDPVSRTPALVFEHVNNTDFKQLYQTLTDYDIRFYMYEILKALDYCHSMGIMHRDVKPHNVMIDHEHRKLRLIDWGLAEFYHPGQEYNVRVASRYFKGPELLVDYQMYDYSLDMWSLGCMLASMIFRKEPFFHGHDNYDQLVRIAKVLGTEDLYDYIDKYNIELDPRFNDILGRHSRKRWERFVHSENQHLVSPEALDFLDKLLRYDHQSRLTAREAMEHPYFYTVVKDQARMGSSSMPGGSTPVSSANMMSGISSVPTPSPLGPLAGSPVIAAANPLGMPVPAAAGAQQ
Chain of Insulin receptor (P06213 28-758 limits assumed): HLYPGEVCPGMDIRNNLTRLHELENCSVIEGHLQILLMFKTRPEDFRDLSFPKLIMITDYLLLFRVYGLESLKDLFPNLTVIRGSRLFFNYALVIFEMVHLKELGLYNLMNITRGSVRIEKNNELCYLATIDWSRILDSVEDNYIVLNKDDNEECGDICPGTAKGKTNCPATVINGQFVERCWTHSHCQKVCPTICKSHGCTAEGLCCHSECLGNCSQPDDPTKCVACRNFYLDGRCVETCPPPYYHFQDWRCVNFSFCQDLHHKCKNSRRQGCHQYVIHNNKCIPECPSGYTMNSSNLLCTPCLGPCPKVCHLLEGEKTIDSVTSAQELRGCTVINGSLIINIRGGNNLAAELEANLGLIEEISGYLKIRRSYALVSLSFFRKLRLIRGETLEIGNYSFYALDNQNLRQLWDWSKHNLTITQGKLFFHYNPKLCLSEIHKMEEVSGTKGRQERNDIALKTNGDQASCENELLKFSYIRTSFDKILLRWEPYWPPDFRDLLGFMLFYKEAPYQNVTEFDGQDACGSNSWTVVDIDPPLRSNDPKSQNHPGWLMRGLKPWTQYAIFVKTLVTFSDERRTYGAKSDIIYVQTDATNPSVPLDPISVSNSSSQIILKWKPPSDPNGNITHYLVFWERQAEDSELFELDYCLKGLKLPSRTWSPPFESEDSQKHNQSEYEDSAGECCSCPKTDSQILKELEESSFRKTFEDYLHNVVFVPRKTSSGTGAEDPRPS
Chain of Insulin receptor (P06213 763-1382 limits assumed): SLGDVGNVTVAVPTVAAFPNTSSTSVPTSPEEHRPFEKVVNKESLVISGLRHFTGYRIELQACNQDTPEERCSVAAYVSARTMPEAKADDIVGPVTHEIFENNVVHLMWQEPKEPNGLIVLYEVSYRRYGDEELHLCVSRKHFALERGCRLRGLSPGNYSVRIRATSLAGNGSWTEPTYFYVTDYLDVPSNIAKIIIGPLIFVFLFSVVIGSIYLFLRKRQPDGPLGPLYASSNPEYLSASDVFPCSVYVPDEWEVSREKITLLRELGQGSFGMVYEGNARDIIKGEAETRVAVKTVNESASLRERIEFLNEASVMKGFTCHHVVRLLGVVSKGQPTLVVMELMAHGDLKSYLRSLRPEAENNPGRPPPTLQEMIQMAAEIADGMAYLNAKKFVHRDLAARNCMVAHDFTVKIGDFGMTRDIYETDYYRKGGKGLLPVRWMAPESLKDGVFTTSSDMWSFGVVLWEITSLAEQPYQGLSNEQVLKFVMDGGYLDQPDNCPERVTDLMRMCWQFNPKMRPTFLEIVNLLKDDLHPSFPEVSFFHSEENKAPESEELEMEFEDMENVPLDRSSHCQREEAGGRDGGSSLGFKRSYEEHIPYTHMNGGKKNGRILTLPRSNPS
Chain of Casein kinase I isoform gamma-1 (Q9HCP0 whole entry, canonical isoform): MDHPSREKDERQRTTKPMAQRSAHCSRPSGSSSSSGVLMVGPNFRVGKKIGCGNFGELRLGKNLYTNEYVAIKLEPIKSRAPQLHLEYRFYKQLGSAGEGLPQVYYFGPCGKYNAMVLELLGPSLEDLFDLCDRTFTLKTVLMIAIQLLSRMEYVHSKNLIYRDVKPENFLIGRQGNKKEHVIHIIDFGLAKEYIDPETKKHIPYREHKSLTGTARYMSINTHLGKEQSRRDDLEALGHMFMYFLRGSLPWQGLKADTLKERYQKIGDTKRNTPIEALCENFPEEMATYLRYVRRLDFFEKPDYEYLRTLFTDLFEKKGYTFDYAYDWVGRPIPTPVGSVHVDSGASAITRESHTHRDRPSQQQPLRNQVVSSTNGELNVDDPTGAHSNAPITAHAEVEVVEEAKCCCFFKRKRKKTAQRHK
Chain of Tyrosine-protein kinase receptor UFO (P30530 whole entry, canonical isoform): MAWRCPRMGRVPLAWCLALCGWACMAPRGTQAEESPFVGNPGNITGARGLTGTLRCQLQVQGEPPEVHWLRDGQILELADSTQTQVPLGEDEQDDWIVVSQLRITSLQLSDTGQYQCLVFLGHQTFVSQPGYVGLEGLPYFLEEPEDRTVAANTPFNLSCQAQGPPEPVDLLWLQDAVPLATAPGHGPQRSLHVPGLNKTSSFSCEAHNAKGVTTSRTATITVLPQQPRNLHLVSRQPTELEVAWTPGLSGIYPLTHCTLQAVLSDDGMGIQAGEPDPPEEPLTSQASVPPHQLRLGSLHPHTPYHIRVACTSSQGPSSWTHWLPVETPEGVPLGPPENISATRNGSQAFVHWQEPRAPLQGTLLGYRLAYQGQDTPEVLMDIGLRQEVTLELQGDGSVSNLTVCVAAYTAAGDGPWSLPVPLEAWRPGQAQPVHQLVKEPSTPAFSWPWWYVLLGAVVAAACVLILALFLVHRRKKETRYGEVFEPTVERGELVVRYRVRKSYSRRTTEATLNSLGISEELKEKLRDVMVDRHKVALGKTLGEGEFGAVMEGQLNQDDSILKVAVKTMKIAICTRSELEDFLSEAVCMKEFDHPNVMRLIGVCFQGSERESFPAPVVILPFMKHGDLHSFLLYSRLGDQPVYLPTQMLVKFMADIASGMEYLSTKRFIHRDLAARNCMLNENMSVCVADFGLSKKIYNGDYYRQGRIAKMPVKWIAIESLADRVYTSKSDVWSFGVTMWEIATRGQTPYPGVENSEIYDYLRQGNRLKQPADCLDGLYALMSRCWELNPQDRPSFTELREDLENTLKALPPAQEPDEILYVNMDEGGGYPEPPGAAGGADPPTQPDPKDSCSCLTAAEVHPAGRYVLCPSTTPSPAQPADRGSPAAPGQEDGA
Chain of Serine/threonine-protein kinase PLK3 (Q9H4B4 whole entry): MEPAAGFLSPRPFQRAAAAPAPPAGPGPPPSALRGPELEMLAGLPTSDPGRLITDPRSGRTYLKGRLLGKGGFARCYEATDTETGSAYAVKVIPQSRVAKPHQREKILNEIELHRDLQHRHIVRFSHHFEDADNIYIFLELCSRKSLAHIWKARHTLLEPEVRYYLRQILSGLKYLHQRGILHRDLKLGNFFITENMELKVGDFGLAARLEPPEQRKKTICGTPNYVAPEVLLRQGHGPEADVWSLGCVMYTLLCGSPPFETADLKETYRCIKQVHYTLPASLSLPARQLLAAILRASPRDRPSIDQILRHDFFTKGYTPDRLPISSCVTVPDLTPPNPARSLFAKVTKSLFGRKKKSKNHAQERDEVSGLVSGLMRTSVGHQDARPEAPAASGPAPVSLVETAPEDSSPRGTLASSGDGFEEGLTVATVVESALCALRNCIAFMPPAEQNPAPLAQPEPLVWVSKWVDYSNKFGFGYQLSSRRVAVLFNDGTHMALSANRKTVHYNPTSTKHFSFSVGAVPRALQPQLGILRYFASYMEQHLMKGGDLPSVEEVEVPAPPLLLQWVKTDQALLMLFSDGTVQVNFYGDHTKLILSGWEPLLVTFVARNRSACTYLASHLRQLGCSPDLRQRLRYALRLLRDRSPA
Chain of Ribosomal protein S6 kinase beta-1 (P23443 whole entry): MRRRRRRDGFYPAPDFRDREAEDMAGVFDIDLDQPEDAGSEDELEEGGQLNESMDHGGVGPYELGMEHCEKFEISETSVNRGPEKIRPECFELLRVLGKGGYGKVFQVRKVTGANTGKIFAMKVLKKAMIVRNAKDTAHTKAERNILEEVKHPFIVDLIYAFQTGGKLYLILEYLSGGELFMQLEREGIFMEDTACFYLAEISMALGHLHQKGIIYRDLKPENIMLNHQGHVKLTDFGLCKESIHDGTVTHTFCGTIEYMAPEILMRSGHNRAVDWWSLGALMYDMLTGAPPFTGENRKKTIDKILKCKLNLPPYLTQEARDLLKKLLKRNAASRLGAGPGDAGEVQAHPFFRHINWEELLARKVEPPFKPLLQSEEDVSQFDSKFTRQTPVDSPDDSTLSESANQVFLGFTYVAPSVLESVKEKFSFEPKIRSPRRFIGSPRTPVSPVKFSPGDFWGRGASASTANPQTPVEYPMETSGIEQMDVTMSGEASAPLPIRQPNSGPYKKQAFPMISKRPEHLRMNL

Compound: Cc1ccc(C(=O)c2c(C)oc3c2C(=O)C(=O)c2ccccc2-3)cc1
- IC50 [1]: 6.83 µM (active)

Compound: Cc1cnc(NC(=O)c2sc3ccccc3c2Cl)s1
- EC50 [2]: > 67.5 µM (inactive)
- IC50 [3]: 3.95 µM (active)

- Ki [4]: > 10 µM (inactive)
- Ki [5]: 3.16 µM (active)
- Ki [6]: > 10 µM (inactive)
- Ki [7]: > 2 µM (inactive)
- Ki [8]: > 6.31 µM (inactive)
- Ki [9]: 6.31 µM (active)
- Ki [10]: 0.631 µM (active)
- Ki (Insulin receptor): > 5.01 µM (inactive)
- Ki [11]: > 1.58 µM (inactive)
- Ki [12]: 6.31 µM (active)
Compound: O=C1NC(=S)SC1=C1C(=O)Nc2ccc(Br)cc21

Compound: Cc1ccc(Nc2cc(C)nn2-c2nc(C)cc(O)n2)cc1
- IC50 [13]: > 100 µM (inactive)
